Each structure is given as a SMILES string. Where only a bound is given, the exact number is not on record here.

For experiment [1], the target named is T1, D(2) dopamine receptor (Homo sapiens, UniProt P14416).
Experiment [2] has as its target T1, D(2) dopamine receptor. Kind of experiment: Displacement of [3H]raclopride from human dopamine D2A receptors expressed in LtK cells. The experiment is classed as cell-based.
Experiment [3] has as its target T1, D(2) dopamine receptor. Kind of experiment: Displacement of [3H]quinpirole from human dopamine D2A receptors expressed in LtK cells. It counts as cell-based.

T1 sequence (P14416 whole entry): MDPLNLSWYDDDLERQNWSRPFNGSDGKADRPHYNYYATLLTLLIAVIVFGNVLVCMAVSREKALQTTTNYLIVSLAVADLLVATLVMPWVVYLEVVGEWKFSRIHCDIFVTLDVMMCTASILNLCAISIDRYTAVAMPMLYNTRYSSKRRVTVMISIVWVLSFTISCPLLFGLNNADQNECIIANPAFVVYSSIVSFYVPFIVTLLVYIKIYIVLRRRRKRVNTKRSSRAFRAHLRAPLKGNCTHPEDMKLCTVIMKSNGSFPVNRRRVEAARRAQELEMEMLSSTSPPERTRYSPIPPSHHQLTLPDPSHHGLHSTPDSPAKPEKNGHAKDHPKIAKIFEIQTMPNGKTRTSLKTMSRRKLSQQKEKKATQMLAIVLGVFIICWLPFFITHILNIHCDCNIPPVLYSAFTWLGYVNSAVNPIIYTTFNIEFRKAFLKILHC

`CCCN(Cc1ccco1)[C@@H]1CCc2c(cccc2OC)C1` returned a nH at D(2) dopamine receptor [1] of 0.83. For the same compound, the Ki on D(2) dopamine receptor [2] amounted to 125 nM; at D(2) dopamine receptor [3], 118 nM.
The compound `NCCc1ccc(O)c(O)c1` showed a nH at D(2) dopamine receptor [1] of 0.65.
Still for that read-out and setting: to `CCCN(CCC)[C@@H]1CCc2c(F)cccc2C1` belongs 0.89.
The compound `CCCN(Cc1cccs1)[C@@H]1CCc2c(cccc2OC)C1` gave a nH on D(2) dopamine receptor [1] of 0.9. Moreover, the values for the Ki on D(2) dopamine receptor [2] and on D(2) dopamine receptor [3] were 152 nM and 339 nM, respectively.
For `CCCN(CCC)[C@@H]1CCc2c(cccc2OC)C1` the same measures were 1.06, 46 nM and 6.35 nM.
With `CCCN(Cc1ccc([N+](=O)[O-])cc1)[C@@H]1CCc2c(cccc2OC)C1`, on D(2) dopamine receptor [1], the nH was found to be 0.9. Moreover, the inhibition constant Ki worked out at 59.2 nM at D(2) dopamine receptor [2] and 215 nM at D(2) dopamine receptor [3].
For `COc1cccc2c1CC[C@@H](NCc1ccccc1)C2` the same measures were 0.83, 1010 nM and 1310 nM.
Turning to `COc1cccc2c1CC[C@@H](N(Cc1ccccc1)Cc1ccccc1)C2`, the Ki at D(2) dopamine receptor [2] and at D(2) dopamine receptor [3] was more than 5000 nM in each case.
With `CCCN(Cc1ccccc1)[C@@H]1CCc2c(cccc2OC)C1`, the nH on D(2) dopamine receptor [1] turned out to be 1.05. In addition, the Ki came out at 65.6 nM at D(2) dopamine receptor [2] and 75 nM on D(2) dopamine receptor [3].
Regarding `CCCN[C@@H]1CCc2c(cccc2OC)C1`, the nH on D(2) dopamine receptor [1] came out at 1.06. The inhibition constant (Ki) at D(2) dopamine receptor [2] came out at 114 nM; at D(2) dopamine receptor [3], 82.3 nM.
For `CCCN(Cc1ccc(F)cc1)[C@@H]1CCc2c(cccc2OC)C1` the same measures were 0.9, 43.8 nM and 69.7 nM.
Take `CCCN(Cc1ccccc1)[C@@H]1CCc2c(F)cccc2C1`: the nH at D(2) dopamine receptor [1] was 0.86.
As to `CCCN(Cc1ccc(OC)cc1)[C@@H]1CCc2c(cccc2OC)C1`, the nH at D(2) dopamine receptor [1] is 0.94. For the same compound, the values for the Ki on D(2) dopamine receptor [2] and at D(2) dopamine receptor [3] were 22 nM and 64.1 nM, respectively.

These data come from ChEMBL document CHEMBL1131815, “Derivatives of (R)-2-amino-5-methoxytetralin: antagonists and inverse agonists at the dopamine D2A receptor” (Bioorg Med Chem Lett, 1999).
